Assay results taken from patent publication US8697659B2, “Analogues of glycolipids useful as immunoadjuvants” (Luigi Panza, priority 2007, dated 2014).

Tests used:
[1] = system: mouse T cell hybridomas FF13; assay: IL-2 secretion by recognition of glycolipids by a murine NKT cell line (FF13 hybridoma, THP1 hCD1d as APC, ELISA); assay type: cell-based; details: at 10 micromolar; CD1d-transfected THP-1 cells exposed two hours to test compound; IL-2 in medium determined 48 hrs later
Protocol: As a measure of T cell activation, IL2 release into the culture medium was determined after 48 hours culture by an ELISA assay. […] The x-axis is amount of glycolipid in μg/ml.
The biological evaluation of compounds of the invention uses mouse Vα14i NKT cells immortalized by cell fusion to give hybridomas FF13 through the presentation by APC (THP1). As a measure of T cell activation, IL2 release into the culture medium was determined after 48 hours culture by an ELISA assay. […]
100 μl FF13 in complete medium were added (10×10^4 per well) and after 48 hours the tests were evaluated for IL2 production.
IL2 concentration is evaluated by ELISA using a primary monoclonal Anti-mouse IL-2 Antibody (R&D System), a biotinylated detection anti-mouse IL-2 Antibody (R&D System) and as color developer SIGMA FAST OPD. […]
FIG. 2 depicts the IL2 levels released by cells that had been treated with compounds 13-16, compared to the effect of alpha-GalCer itself, in an NKT cell hybridoma test. The a-GalCer specific NKT hybridoma cells were added to CD1d-transfected THP-1 cells that had been exposed for two hours to various doses of the test compound (about 0.1 to about 10 μg/mL), and IL-2 levels in the medium were determined 48 hrs later.

Solubility in water = assay type: physicochemical
Protocol: In some embodiments, the compounds of the invention have a solubility of at least about 0.5 mg/mL, 1 mg/mL, 2 mg/mL, 5 mg/mL, 7.5 mg/mL, 10 mg/mL, 12.5 mg/mL, 15 mg/mL, 17.5 mg/mL, 20 mg/mL, 25 mg/mL, 30 mg/mL, 40 mg/mL, 50 mg/mL, 75 mg/mL, 100 mg/mL, 150 mg/mL or 200 mg/mL in an aqueous solution.

CCCCCCCCCCCCCCCCCCCCCCCCCC(=O)N[C@@H](COC1OC(CO)C(O)C(O)C1O)[C@H](O)[C@H](O)COCCOCCCC (stereo partly drawn) [Compound 13, (2S,3S,4R)-5-O-(2-butoxyetil)-2-(N-exacosanoylamino)-1-O-(α-D-galactopyranosyl)-1,3,4,5-pentanetetraol]
IL2 levels released, compared to the effect of alpha-GalCer [1]: as effective as a-GalCer

CCCCCCCCCCCCCCCCCCCCCCCCCC(=O)N[C@@H](CO[C@H]1OC(CO)[C@H](O)C(O)C1O)[C@H](O)[C@H](O)COCCCc1ccccc1 (stereo partly drawn) [Compound 15]
solubility in water (Solubility in water): soluble in water

CCCCCCCCCCCCCCCCCCCCCCCCCC(=O)N[C@@H](CO[C@H]1OC(CO)[C@H](O)C(O)C1O)[C@H](O)[C@H](O)COCCCc1ccccc1 (stereo partly drawn) [Compound 16]
IL2 levels released, compared to the effect of alpha-GalCer [1]: as effective as a-GalCer
